Results as given in US9790185B2, “Process for the preparation of regorafenib and its crystalline forms” (SHILPA MEDICARE LIMITED, priority 2014, dated 2017).
Like-named read-outs stand apart in the source and are kept apart here.

Experiments:
[1] = cited from earlier work
[2] = background description of the drug substance; cited from earlier work
[3] = tested on: tumour models including colorectal tumour models; conditions: preclinical studies; broad spectrum of tumour models including colorectal; mediated by antiangiogenic and antiproliferative effects; cited from earlier work
[4] = Stability on handling and storage of crystalline forms; conditions: without any significant or measurable change in morphology and physicochemical characteristics
Excerpt: (§1) The merit of the process according to the present invention resides in that product isolated after drying is directly obtained as crystalline Form I of Regorafenib (I). Said material is found devoid of any other crystal lattice and is adequately stable to handle and store for longer time (at least up to more than 6 months) without any significant or measurable change in its morphology and physicochemical characteristics. Crystalline Form I of Regorafenib (I) obtained according to the process of the present invention results in the final API purity by of more than 99.5% w/w, and found to be anhydrous with moisture content of not more than 0.5%.
as §1, with “Form III” for “Form I”, “by HPLC” for “by”

Row | SMILES | solubility ([1]; in 2-propanol) | solubility ([1]; in PEG 400 (macrogol)) | solubility ([1]; in acetone) | solubility ([1]; in acetonitrile) | solubility ([1]; in dichloromethane) | solubility ([1]; in dilute acid solution) | solubility ([1]; in dilute alkaline solution) | solubility ([1]; in ethanol) | solubility ([1]; in ethyl acetate) | solubility ([1]; in glycerine) | solubility ([1]; in methanol) | solubility ([1]; in n-heptane) | solubility ([1]; in propylene glycol) | solubility ([1]; in toluene) | solubility ([1]; in water) | hygroscopicity [2] | antitumour activity [3] | time adequately stable to handle and store [4]
1 | CNC(=O)c1cc(Oc2ccc(NC(=O)Nc3ccc(Cl)c(C(F)(F)F)c3)c(F)c2)ccn1 [Regorafenib, 4-[4-({[4-chloro-3-(trifluoromethyl)phenyl]carbamoyl}amino)-3-fluorophenoxy]-N-methylpyridine-2-carboxamide] | slightly soluble | soluble | sparingly soluble | slightly soluble | slightly soluble | practically insoluable | practically insoluable | slightly soluble | slightly soluble | practically insoluable | slightly soluble | practically insoluable | slightly soluble | practically insoluable | practically insoluable | not hygroscopic | demonstrated antitumour activity | 
2 | CNC(=O)c1cc(Oc2ccc(NC(=O)Nc3ccc(Cl)c(C(F)(F)F)c3)c(F)c2)ccn1 [crystalline Form I of Regorafenib (I), 4-[4-({[4-chloro-3-(trifluoromethyl)phenyl]carbamoyl}amino)-3-fluorophenoxy]-N-methylpyridine-2-carboxamide] |  |  |  |  |  |  |  |  |  |  |  |  |  |  |  |  |  | more than 6 months
